From EP0586525B1, “CARBOXAMIDO-(1,2N)-CARBOCYCLIC-2-AMINOTETRALIN DERIVATIVES” (priority 1991, dated 1992)
pIC50: −log10 of the molar value.

What was measured:
[1] = target: T1, 5-hydroxytryptamine (5-HT1A) receptor (Bos taurus, UniProt F6Q2H9); test: Inhibition of 8-OH-DPAT binding in a bovine brain homogenate; conditions: read-out: Binding at the 5-HT1A receptor site, IC50
T1 construct: from tissue; host or cells: bovine brain homogenate
T1 sequence (F6Q2H9 1-422): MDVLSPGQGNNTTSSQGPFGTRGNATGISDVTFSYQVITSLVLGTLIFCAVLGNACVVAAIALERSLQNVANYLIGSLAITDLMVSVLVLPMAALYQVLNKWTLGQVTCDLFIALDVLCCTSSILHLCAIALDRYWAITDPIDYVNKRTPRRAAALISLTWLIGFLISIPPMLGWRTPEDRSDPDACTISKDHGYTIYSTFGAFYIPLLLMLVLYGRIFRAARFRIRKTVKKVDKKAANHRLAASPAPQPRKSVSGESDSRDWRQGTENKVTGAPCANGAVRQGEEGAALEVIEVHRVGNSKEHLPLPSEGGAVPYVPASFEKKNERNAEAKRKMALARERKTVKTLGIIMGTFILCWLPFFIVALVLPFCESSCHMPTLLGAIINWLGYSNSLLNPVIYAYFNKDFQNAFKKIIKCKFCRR
Text: Binding: Inhibition of 8-OH-DPAT binding in a bovine brain homogenate. Potency is given as nM dose required to inhibit 50% of DPAT binding (IC50). This test measures ability to bind to 5-hydroxytryptamine (5-HT1A) receptor.

Mouse hypothermia = type: in vivo; conditions: dose depressing temperature by 2°C or more in two of four mice
Method: Hypothermia: Starting with a dose of 30 mg/kg, four mice are injected subcutaneously with test compound. Twenty minutes later, the number of animals whose body temperature has decreased by 2°C. or more are counted. If all four animals reach criteria, the drug is considered "active", and subsequent readings are taken at 60 and 120 minutes after drug. The time for last statistically significant drug affect on mean body temperature is indicated in minutes. […] Active compounds are retested using oral administration. Potency is given as mg/kg ED50 (dose required to depress temperature in two of four mice) as measured by Spearman-Karber statistics.

[2] = system: spontaneous sympathetic activity; test: Sympathetic nerve discharge (SND) in chloralose anesthetized cats; type: in vivo; conditions: Felis catus, iv, dose range 0.001-1.0 mg/kg, read-out: Sympathetic nerve discharge, ED50 dose which inhibits spontaneous sympathetic activity
Method: Sympathetic Nerve Discharge (SND): The i.v. mg/kg dose causing a 50% depression in SND in chloralose anesthetized cats and the maximum inhibition of sympathetic activity observed in the dose range tested (0.001-1.0 mg/kg i.v.).

[3] = Blood pressure at the SND ED50 dose (BP SND/MAX); type: in vivo; conditions: at the dose which inhibited sympathetic activity by 50%, i.v., chloralose anesthetized cats
Method: BP SND/MAX: The blood pressure of the chloralose anesthetized cats in percent control at the dose causing 50% depression in SND and the maximum reduction in blood pressure as percent of the control blood pressure in the same animals observed in the dose range tested (0.001-1.0 mg/kg i.v.).

[4] = system: dorsal raphe 5-HT cell firing; test: 5-HT cell firing in chloral hydrate anesthetized rats; type: in vivo; conditions: Rattus norvegicus, iv, read-out: Depression of 5-HT cell firing, ED50
Text: 5-HT Cell Firing: The i.v. mg/kg dose causing a 50% depression in the firing of dorsal raphe 5-HT cell firing in chloral hydrate anesthetized rats.

rat hepatocytes = test: In vitro rat hepatocyte intrinsic clearance; type: in vitro ADME; conditions: for In vitro hepatocyte assay clearance: 2, 5 and 15 µg/ml, 60 minute incubation at 37°C, rat hepatocytes 5.0 million cells/ml; for relative metabolic stability (rel. stab.): relative to cis-(±)2,3,3a,4,5,9b-hexahydro-9-carboxamido-3-(n-propyl)-1H-benz[e]indole, rat hepatocytes
Method: Aliquots of each incubate were withdrawn at preset times during the incubation and analyzed for parent compound using HPLC methodology. Intrinsic clearance is expressed as ml/min/5 million cells and metabolic stability relative to cis-(+)2,3,3a,4,5,9b-hexahydro-9-carboxamide-3-(n-propyl)-1H-benz[e]indole is determined.

[5] = Pharmacokinetics following constant infusion (steady state clearance); conditions: plasma, iv; after 12 hour infusion (300 µg/hour), anesthetized rat; read-out: In vivo steady state clearance
Method: Pharmacokinetics Following Constant Infusion: Clearance rate (ml/min/kg) was determined following a 12 hour infusion (300 µg/hour) of compound in the anesthetized rat. Disappearance of parent compound from plasma was measured at multiple time points following cessation of the infusion using HPLC methodology.

[6] = Oral plasma bioavailability; type: in vivo; conditions: rat, 6 mg/kg, conscious rats
Method: Oral Bioavailability: Comparison of the disappearance of compound from plasma following oral (6 mg/kg) and intravenous (2 mg/kg) administration in conscious rats. Parent compound in plasma was measured at multiple time points following administration using HPLC methodology. Bioavailability is expressed as a percentage of the drug in plasma following oral administration compared to that following intravenous administration.

[7] = rat, in vivo; cited from earlier work
[8] = sc, subcutaneous (s.c.) administration

Row | Compound | pIC50 [1] | In vitro hepatocyte assay clearance (rat hepatocytes) | relative metabolic stability (rel. stab.) (rat hepatocytes) | clearance [5] [mL/min/kg] | bioavailability ([6]; Study 1, oral 6 mg/kg vs i.v. 2 mg/kg) [%] | bioavailability ([6]; Study 2, samples taken for 24 hours after administration, oral 6 mg/kg vs i.v. 2 mg/kg) [%] | bioavailability ([6]; study not given, oral 6 mg/kg vs i.v. 2 mg/kg) [%] | ED50 (Mouse hypothermia; oral (p.o.) administration) [mg/kg] | ED50 (Mouse hypothermia; [8]) [mg/kg] | ED50 [2] [mg/kg] | Percent of control arterial blood pressure [3] [%] | ED50 [4] [mg/kg] | plasma oral bioavailability [7] [%]
1 | CCCN1CCCC2c3c(cccc3C(N)=O)CCC21 (racemic) [Compound 4, trans-(±)1,2,3,4,4a,5,6,10b-octahydro-10-carboxamido-4-(n-propyl)-benzo[f]quinoline] | 8.43 |  |  |  |  |  |  | 4.1 | 0.23 |  |  |  | 
2 | CCCN1CCC2c3c(cccc3C(N)=O)CCC21 (single isomer, unassigned) [Compound 3, cis-(+)2,3,3a,4,5,9b-hexahydro-9-carboxamido-3-(n-propyl)-1H-benz[e]indole] | 6.27 |  |  |  |  |  |  |  |  | > 1 |  | > 0.3 | 
3 | CCCN(CCC)C1CCc2cccc(O)c2C1 (centres unmarked) [8-OH DPAT] |  |  |  |  |  |  |  |  |  |  |  |  | < 5

More lines, main results first:

Row | pIC50 [1] | In vitro hepatocyte assay clearance (rat hepatocytes) | relative metabolic stability (rel. stab.) (rat hepatocytes) | clearance [5] [mL/min/kg] | bioavailability ([6]; Study 1, oral 6 mg/kg vs i.v. 2 mg/kg) [%] | bioavailability ([6]; Study 2, samples taken for 24 hours after administration, oral 6 mg/kg vs i.v. 2 mg/kg) [%] | bioavailability ([6]; study not given, oral 6 mg/kg vs i.v. 2 mg/kg) [%] | Compound | ED50 (Mouse hypothermia; oral (p.o.) administration) [mg/kg] | ED50 (Mouse hypothermia; [8]) [mg/kg] | ED50 [2] [mg/kg] | Percent of control arterial blood pressure [3] [%] | ED50 [4] [mg/kg] | plasma oral bioavailability [7] [%]
4 | 8.28 | .013 ml/min/5 million cells | 1.0 | 58 | 59 | 70 |  | CCCN1CC[C@H]2c3c(cccc3C(N)=O)CC[C@H]21 (racemic) [Compound 1, cis-(±)2,3,3a,4,5,9b-hexahydro-9-carboxamido-3-(n-propyl)-1H-benz[e]indole] | 7.3 | 0.97 | 0.037 | 82 | 0.002 | 
5 | 7.99 |  |  |  |  |  |  | CCCN1CC[C@H]2c3c(cccc3C(N)=O)CC[C@H]21 (single isomer, unassigned) [Compound 2, cis-(-)2,3,3a,4,5,9b-hexahydro-9-carboxamido-3-(n-propyl)-1H-benz[e]indole] |  |  | 0.019 | 84 | 0.006 | 
6 | 8.82 | .012 ml/min/5 million cells | 3.59 | 43 |  |  | 86 | CCCN1CCCC2c3c(cccc3C(N)=O)CCC21 (single isomer, unassigned) [Compound 5, trans-(-)1,2,3,4,4a,5,6,10b-octahydro-10-carboxamido-4-(n-propyl)-benzo[f]quinoline] |  | 1.73 | 0.15 | 85 | > 0.1 | 
7 |  |  | 1.05 |  |  |  |  | CCCN1CCC[C@H]2c3c(cccc3C(N)=O)CC[C@@H]21 (single isomer, unassigned) [Compound 6, trans-(+)1,2,3,4,4a,5,6,10b-octahydro-10-carboxamido-4-(n-propyl)-benzo[f]quinoline] |  |  |  |  |  | 
